For 37 compounds, IC50 and melting point results are on record in patent US8883826B2, “Alkynyl derivatives as modulators of metabotropic glutamate receptors” (Addex Pharma SA, priority 2004, dated 2014).

For orientation: IC50 means the midpoint of a concentration-inhibition curve. Read a high IC50 as weaker potency in that assay. The melting point is the temperature of the solid-liquid transition.

The target of one series is T1, mGluR5 (Rattus norvegicus, UniProt P31424).
T1 construct: tissue Charles River Laboratories; host or cells: rat brain cortex membranes (Sprague-Dawley)
Put plainly: mGluR5 binding assay ([3H]-MPEP radioligand competition). The conditions noted are these: competition with 3 nM [3H]-MPEP, rat brain cortical membranes, 1 h at 4 °C; mean of at least three independent experiments in duplicate. The essentials: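 Rat cortical membranes (50 μg) were incubated 1 h at 4 °C with 3 nM [3H]-MPEP and compound (0.003 nM-30 μM, 8 points) in HEPES buffer pH 7.4 with Mg2+, Ca2+ and NaCl. 30 μM MPEP defined non-specific binding, and bound label was counted after filtration. IC50 came from non-linear regression, as the mean of ≥3 experiments run in duplicate.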
(In general: Displacement assays read how much labelled ligand stays bound in the presence of the test substance.)

T1 sequence (P31424 21-1203): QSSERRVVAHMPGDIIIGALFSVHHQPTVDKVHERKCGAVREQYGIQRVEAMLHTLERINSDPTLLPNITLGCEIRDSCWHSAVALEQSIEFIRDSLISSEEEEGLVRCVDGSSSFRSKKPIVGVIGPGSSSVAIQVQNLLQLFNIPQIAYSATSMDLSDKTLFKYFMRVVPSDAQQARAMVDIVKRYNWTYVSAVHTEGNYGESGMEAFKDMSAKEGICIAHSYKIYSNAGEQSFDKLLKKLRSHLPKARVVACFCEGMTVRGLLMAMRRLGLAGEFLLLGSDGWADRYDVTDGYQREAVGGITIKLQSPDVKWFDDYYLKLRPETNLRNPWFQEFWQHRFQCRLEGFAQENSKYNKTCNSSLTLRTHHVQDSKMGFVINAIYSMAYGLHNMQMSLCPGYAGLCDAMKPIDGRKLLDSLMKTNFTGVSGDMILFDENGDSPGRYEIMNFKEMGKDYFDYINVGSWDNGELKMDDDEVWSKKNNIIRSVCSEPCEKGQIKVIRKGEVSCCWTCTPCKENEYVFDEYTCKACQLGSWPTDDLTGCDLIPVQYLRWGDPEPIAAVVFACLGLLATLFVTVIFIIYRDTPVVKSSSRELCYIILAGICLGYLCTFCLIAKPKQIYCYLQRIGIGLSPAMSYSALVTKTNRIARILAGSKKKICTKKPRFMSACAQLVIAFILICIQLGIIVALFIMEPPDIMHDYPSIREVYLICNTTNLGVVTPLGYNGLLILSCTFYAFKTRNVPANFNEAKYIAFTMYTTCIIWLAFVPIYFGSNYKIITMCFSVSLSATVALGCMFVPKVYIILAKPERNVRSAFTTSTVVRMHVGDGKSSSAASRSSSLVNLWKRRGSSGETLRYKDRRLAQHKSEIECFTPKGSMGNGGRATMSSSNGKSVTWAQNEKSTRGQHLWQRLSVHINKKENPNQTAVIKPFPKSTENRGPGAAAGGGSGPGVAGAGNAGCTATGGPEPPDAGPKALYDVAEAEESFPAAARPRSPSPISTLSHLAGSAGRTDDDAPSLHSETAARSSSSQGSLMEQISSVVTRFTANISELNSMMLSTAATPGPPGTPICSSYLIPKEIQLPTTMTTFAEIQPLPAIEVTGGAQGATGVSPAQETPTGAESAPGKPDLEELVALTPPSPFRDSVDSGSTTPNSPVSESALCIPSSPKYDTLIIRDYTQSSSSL

`Cc1ccc(Cl)cc1-c1noc(CCC#Cc2ccccn2)n1` [Example 60, 2-(4-(3-(5-Chloro-2-methylphenyl)-1,2,4-oxadiazol-5-yl)but-1-ynyl)pyridine] registered a melting point of 66 to 68 °C. The compound also came in with an IC50 on mGluR5 of less than 10 µM.
In the case of `Fc1cc(F)c2oc(CCC#Cc3ccccn3)nc2c1` [Example 89, 5,7-Difluoro-2-(4-(pyridin-2-yl)but-3-ynyl)benzo[d]oxazole], the melting point is 93.5 to 94 °C. The compound also returned an IC50 at mGluR5 of less than 0.05 µM.
The matching figures for `Fc1cccc2oc(CCC#Cc3ccccn3)nc12` [Example 90, 4-Fluoro-2-(4-(pyridin-2-yl)but-3-ynyl)benzo[d]oxazole]: 89 to 89.5 °C and less than 0.05 µM.
With `N#Cc1cccc2nc(CCC#Cc3ccccn3)oc12` [Example 92, 2-(4-(Pyridin-2-yl)but-3-ynyl)benzo[d]oxazole-7-carbonitrile], the melting point was 126 to 126.5 °C. The IC50 on mGluR5 is less than 0.05 µM.
`Fc1ccc(Cl)c2oc(CCC#Cc3ccccn3)nc12` [Example 93, 7-Chloro-4-fluoro-2-(4-(pyridin-2-yl)but-3-ynyl)benzo[d]oxazole] displayed a melting point of 102 to 103 °C. The IC50 at mGluR5 is less than 0.05 µM.
The matching figures for `O=c1n(CCC#Cc2cccc(CF)n2)nc2ccccn12` [Example 120, 2-(4-(6-(Fluoromethyl)pyridin-2-yl)but-3-ynyl)-[1,2,4]triazolo[4,3-a]pyridin-3(2H)-one]: 106 to 107 °C and less than 10 µM.
With `FCc1cccc(C#CCCc2ccc3ccccc3n2)n1` [Example 126, 2-(4-(6-(Fluoromethyl)pyridin-2-yl)but-3-ynyl)quinoline], the melting point was in the range of 70.2 to 74.3 °C. Moreover, the IC50 on mGluR5 is less than 0.05 µM.
The matching figures for `FCc1cccc(C#CCCc2cnc3ccccc3n2)n1` [Example 129, 2-(4-(6-(Fluoromethyl)pyridin-2-yl)but-3-ynyl)quinoxaline]: 136 °C (dec.) and less than 0.05 µM.
`Cl.FCc1cccc(C#CCCn2nc3cc(F)cc(F)c3n2)n1` [Example 131, 4,6-Difluoro-2-(4-(6-(fluoromethyl)pyridin-2-yl)but-3-ynyl)-2H-benzo[d][1,2,3]triazole hydrochloride] gave a melting point of 128 to 130 °C. On mGluR5, the IC50 is less than 0.05 µM.
The matching figures for `Cl.FCc1cccc(C#CCCn2nc3ccc(F)c(F)c3n2)n1` [Example 132, 4,5-Difluoro-2-(4-(6-(fluoromethyl)pyridin-2-yl)but-3-ynyl)-2H-benzo[d][1,2,3]triazole hydrochloride]: 157 to 159 °C and less than 0.05 µM.
In the same order, the values of `FC(F)c1cccc(C#CCCn2nc3ccccc3n2)n1` [Example 134, 2-(4-(6-(Difluoromethyl)pyridin-2-yl)but-3-ynyl)-2H-benzo[d][1,2,3]triazole] are 101.8 to 102.9 °C and less than 10 µM.
Consider `FCc1cccc(C#CCCc2cnc3cc(F)c(F)cc3n2)n1` [Example 148, 6,7-Difluoro-2-(4-(6-(fluoromethyl)pyridin-2-yl)but-3-ynyl)quinoxaline], for which the melting point is 134.9 to 138.5 °C. The compound further gave an IC50 at mGluR5 of less than 10 µM.
Regarding `Fc1cc2nn(CCC#Cc3ccccn3)nc2cc1F` [Example 153, 5,6-Difluoro-2-(4-(pyridin-2-yl)but-3-ynyl)-2H-benzo[d][1,2,3]triazole], the melting point is 131 to 132 °C. Further, the concentration for half-maximal inhibition (IC50) on mGluR5 was less than 10 µM.
`FCc1cccc(C#CCCn2nc3cc(F)c(F)cc3n2)n1` [Example 154, 5,6-Difluoro-2-(4-(6-(fluoromethyl)pyridin-2-yl)but-3-ynyl)-2H-benzo[d][1,2,3]triazole] registered a melting point of 104 to 105 °C. This compound also had an IC50 at mGluR5 of less than 10 µM.
As to `CNc1cccc(C#CCCn2nc3ccccc3n2)n1` [Example 167, 6-(4-(2H-Benzo[d][1,2,3]triazol-2-yl)but-1-ynyl)-N-methylpyridin-2-amine], the melting point lay in the range of 150 to 154 °C. This compound also displayed an IC50 at mGluR5 of less than 0.5 µM.
As to `Fc1ccc(-c2cc(CCC#Cc3ccccn3)on2)cc1` [Example 168, 2-(4-(3-(4-Fluorophenyl)isoxazol-5-yl)but-1-ynyl)pyridine], the melting point fell in the range of 83 to 84 °C. Besides, on mGluR5, the IC50 was less than 10 µM.
In the same order, the values of `CC(=O)Nc1cccc(C#CCCn2nc3ccccc3n2)n1` [Example 169, N-(6-(4-(2H-Benzo[d][1,2,3]triazol-2-yl)but-1-ynyl)pyridin-2-yl)acetamide] are 93 to 94 °C and less than 10 µM.
Take `CCNc1cccc(C#CCCn2nc3ccccc3n2)n1` [Example 170, 6-(4-(2H-Benzo[d][1,2,3]triazol-2-yl)but-1-ynyl)-N-ethylpyridin-2-amine]: the melting point lay within 73 to 78 °C. Moreover, the IC50 at mGluR5 was less than 10 µM.
For the compound `Fc1ccc(-c2cn(CCC#Cc3ccccn3)nn2)cc1` [Example 179, 2-(4-(4-(4-Fluorophenyl)-1H-1,2,3-triazol-1-yl)but-1-ynyl)pyridine], the melting point is 120 to 122 °C. The compound also gave an IC50 on mGluR5 of less than 0.5 µM.
The matching figures for `O=c1c2ccccc2ccn1CCC#Cc1ccccn1` [Example 183, 2-(4-(Pyridin-2-yl)but-3-ynyl)isoquinolin-1(2H)-one]: 85 to 90 °C and less than 0.5 µM.
On to `O=C(CCC#Cc1ccccn1)Nc1ccccc1F` [Example 186, N-(2-Fluorophenyl)-5-(pyridin-2-yl)pent-4-ynamide], for which the melting point fell in the range of 82 to 84 °C. The IC50 at mGluR5 is less than 10 µM.
Take `O=C(CCC#Cc1ccccn1)Nc1cccc(F)c1` [Example 187, N-(3-Fluorophenyl)-5-(pyridin-2-yl)pent-4-ynamide]: the melting point was 110 to 114 °C. Also, on mGluR5, the IC50 was less than 10 µM.
`Cc1cc(F)ccc1NC(=O)CCC#Cc1ccccn1` [Example 188, N-(4-Fluoro-2-methyl-phenyl)-5-(pyridin-2-yl)pent-4-ynamide] returned a melting point of 110 to 114 °C. For the same compound, on mGluR5, the IC50 was less than 10 µM.
Consider `Cn1c(CCC#Cc2cccc(CF)n2)nc2ccccc21` [Example 190, 2-(4-(6-(Fluoromethyl)pyridin-2-yl)but-3-ynyl)-1-methyl-1H-benzo[d]imidazole], for which the melting point lay within 95.3 to 96.3 °C. On mGluR5, this compound gave an IC50 of less than 0.5 µM.
`Cn1c(CCC#Cc2cccc(CF)n2)nc2c(F)cc(F)cc21` [Example 193, 4,6-Difluoro-2-(4-(6-(fluoromethyl)pyridin-2-yl)but-3-ynyl)-1-methyl-1H-benzo[d]imidazole]: the melting point lay within 103 to 104 °C. On mGluR5, the IC50 was less than 0.5 µM.
`Cc1nc(C#CCCn2nc3ccccc3n2)sc1C` [Example 222, 2-(4-(4,5-Dimethylthiazol-2-yl)but-3-ynyl)-2H-benzo[d][1,2,3]triazole]: the melting point lay within 96 to 98 °C. The same compound came in with an IC50 on mGluR5 of less than 10 µM.
In turn, `FCc1cccc(C#CCCc2cn3cc(F)ccc3n2)n1` [Example 223, 6-Fluoro-2-(4-(6-(fluoromethyl)pyridin-2-yl)but-3-ynyl)H-imidazo[1,2-a]pyridine] showed a melting point of 140 to 141.8 °C. For the same compound, the IC50 on mGluR5 was less than 0.5 µM.
The matching figures for `FCc1nc(C#CCCc2cn3cc(F)ccc3n2)cs1` [Example 224, 6-Fluoro-2-(4-(2-(fluoromethyl)thiazol-4-yl)but-3-ynyl)-imidazo[1,2-a]pyridine]: 82 to 84 °C and less than 0.05 µM.
For `FCc1cccc(C#CCCc2cn3cccc(OCc4ccccc4)c3n2)n1` [Example 226, 8-(Benzyloxy)-2-(4-(6-(fluoromethyl)pyridin-2-yl)but-3-ynyl)-imidazo[1,2-a]pyridine], the melting point is 92 to 94 °C. At mGluR5, this compound returned a half-inhibitory concentration (IC50) of less than 10 µM.
In turn, `Fc1cc(F)c2nc(CCC#Cc3ccccn3)cn2c1` [Example 228, 6,8-Difluoro-2-(4-(pyridin-2-yl)but-3-ynyl)-imidazo[1,2-a]pyridine] returned a melting point of 130 to 131 °C. The compound also returned an IC50 on mGluR5 of less than 0.05 µM.
`Fc1cccnc1C#CCCc1nc2ccccc2o1` [Example 230]: the melting point is 86 to 88 °C. The IC50 at mGluR5 was less than 10 µM.
The compound `Cc1nc(C#CCCc2nc3ccccc3o2)c[nH]1` [Example 231, 2-(4-(2-Methyl-1H-imidazol-4-yl)but-3-ynyl)benzo[d]oxazole] had a melting point of 152 to 154 °C. The IC50 on mGluR5 was less than 10 µM.
The matching figures for `O=C(CCC#Cc1cccc(CF)n1)Nc1ccc(F)cc1` [Example 232, 5-(6-(Fluoromethyl)pyridin-2-yl)-N-(4-fluorophenyl)pent-4-ynamide]: 110 °C and less than 10 µM.
Consider `Cc1nc(C#CCCc2nc3ccccc3o2)cn1C` [Example 233, 2-(4-(1,2-Dimethyl-1H-imidazol-4-yl)but-3-ynyl)benzo[d]oxazole], for which the melting point was in the range of 117 to 119 °C. Further, the IC50 at mGluR5 is less than 10 µM.
In the case of `O=C1c2ccccc2CN1CCC#Cc1ccccn1` [Example 234, 2-(4-(Pyridin-2-yl)but-3-ynyl)isoindolin-1-one], the melting point lay in the range of 94 to 98 °C. In addition, the IC50 at mGluR5 was less than 10 µM.
`FCc1cccc(C#CCCc2nc3ccccc3s2)n1` [Example 241, 2-(4-(6-(Fluoromethyl)pyridin-2-yl)but-3-ynyl)benzo[d]thiazole] gave a melting point of 74 to 76 °C. At mGluR5, the IC50 was less than 0.05 µM.
In turn, `O=C1c2ccccc2C(=O)N1CCCC#Cc1ccccn1` [Example 242, 2-(5-(Pyridin-2-yl)pent-4-ynyl)isoindoline-1,3-dione] yielded a melting point of 127 to 129 °C. On mGluR5, the IC50 was less than 10 µM.
